Measurements reported in the NIST ThermoML archive (doi:10.1021/je1012586).
± gives the expanded uncertainty stated by the source.

Assays:
[1] = refractive index (Na D-line) (dimensionless); wn = mass fraction of the nth substance listed; settings: 101 kPa, Liquid
[2] = wn = mass fraction of the nth substance listed; settings: for surface tension liquid-gas: Pendant drop shape; for viscosity / mass density: 101 kPa, Liquid; for viscosity: Capillary tube (Ostwald / Ubbelohde) method

C1CNCCN1 [piperazine] + O
Settings	mass density, [2] [kg/m3]	refractive index, [1]	surface tension liquid-gas, [2] [mN/m]	viscosity, [2] [mPa·s]
298.15 K, w1 = 0.0174	997.75 ± 0.07	1.33796 ± 0.0012	70.97 ± 0.63	0.87 ± 0.1
298.15 K, w1 = 0.0345	998.52 ± 0.07	1.34183 ± 0.0012	69.95 ± 0.63	0.94 ± 0.1
298.15 K, w1 = 0.0688	1000.18 ± 0.07	1.34759 ± 0.0012	69.83 ± 0.62	1.08 ± 0.1
298.15 K, w1 = 0.1035	1002.23 ± 0.07	1.35307 ± 0.0012	69.41 ± 0.62	1.29 ± 0.1
303.15 K, w1 = 0.0174	996.37 ± 0.07	1.33706 ± 0.0012	70.09 ± 0.62	0.78 ± 0.1
303.15 K, w1 = 0.0345	997.08 ± 0.07	1.34024 ± 0.0012	69.18 ± 0.62	0.85 ± 0.1
303.15 K, w1 = 0.0688	998.69 ± 0.07	1.34608 ± 0.0012	68.99 ± 0.61	0.96 ± 0.1
303.15 K, w1 = 0.1035	1000.64 ± 0.07	1.35203 ± 0.0012	68.37 ± 0.61	1.18 ± 0.1
308.15 K, w1 = 0.0174	994.74 ± 0.07	–	–	0.71 ± 0.1
308.15 K, w1 = 0.0345	995.43 ± 0.07	–	–	0.75 ± 0.1
308.15 K, w1 = 0.0688	996.97 ± 0.07	–	–	0.86 ± 0.1
308.15 K, w1 = 0.1035	998.84 ± 0.07	–	–	1.04 ± 0.1
313.15 K, w1 = 0.0174	992.91 ± 0.07	1.33604 ± 0.0012	69.11 ± 0.62	0.68 ± 0.1
313.15 K, w1 = 0.0345	993.59 ± 0.07	1.33892 ± 0.0012	68.21 ± 0.61	0.69 ± 0.1
313.15 K, w1 = 0.0688	995.07 ± 0.07	1.34482 ± 0.0012	68.11 ± 0.61	0.78 ± 0.1
313.15 K, w1 = 0.1035	996.86 ± 0.07	1.35071 ± 0.0012	67.44 ± 0.6	0.9 ± 0.1
318.15 K, w1 = 0.0174	990.9 ± 0.07	–	–	0.59 ± 0.1
318.15 K, w1 = 0.0345	991.56 ± 0.07	–	–	0.63 ± 0.1
318.15 K, w1 = 0.0688	992.99 ± 0.07	–	–	0.71 ± 0.1
318.15 K, w1 = 0.1035	994.73 ± 0.07	–	–	0.84 ± 0.1
323.15 K, w1 = 0.0174	988.72 ± 0.08	1.33476 ± 0.0012	67.93 ± 0.61	0.54 ± 0.1
323.15 K, w1 = 0.0345	989.35 ± 0.07	1.33759 ± 0.0012	67.29 ± 0.6	0.57 ± 0.1
323.15 K, w1 = 0.0688	990.74 ± 0.07	1.34336 ± 0.0012	67.06 ± 0.6	0.65 ± 0.1
323.15 K, w1 = 0.1035	992.39 ± 0.07	1.34957 ± 0.0012	66.45 ± 0.59	0.78 ± 0.1
328.15 K, w1 = 0.0174	986.37 ± 0.08	–	–	0.5 ± 0.1
328.15 K, w1 = 0.0345	986.98 ± 0.08	–	–	0.52 ± 0.1
328.15 K, w1 = 0.0688	988.33 ± 0.08	–	–	0.58 ± 0.1
328.15 K, w1 = 0.1035	989.92 ± 0.07	–	–	0.68 ± 0.1
333.15 K, w1 = 0.0174	983.83 ± 0.08	1.33348 ± 0.0012	66.99 ± 0.6	0.46 ± 0.1
333.15 K, w1 = 0.0345	984.46 ± 0.08	1.33577 ± 0.0012	66.48 ± 0.59	0.48 ± 0.1
333.15 K, w1 = 0.0688	985.77 ± 0.08	1.34221 ± 0.0012	66.14 ± 0.59	0.54 ± 0.1
333.15 K, w1 = 0.1035	987.3 ± 0.08	1.34829 ± 0.0012	65.31 ± 0.59	0.62 ± 0.1
